The term IC50 denotes the concentration that gives 50% inhibition.

Several values for one entry are separate records, joined by “and”; a condition that tells them apart may be missing. Equal values may be shown once.

Sequence of IDO1 (P14902 whole entry, species assumed): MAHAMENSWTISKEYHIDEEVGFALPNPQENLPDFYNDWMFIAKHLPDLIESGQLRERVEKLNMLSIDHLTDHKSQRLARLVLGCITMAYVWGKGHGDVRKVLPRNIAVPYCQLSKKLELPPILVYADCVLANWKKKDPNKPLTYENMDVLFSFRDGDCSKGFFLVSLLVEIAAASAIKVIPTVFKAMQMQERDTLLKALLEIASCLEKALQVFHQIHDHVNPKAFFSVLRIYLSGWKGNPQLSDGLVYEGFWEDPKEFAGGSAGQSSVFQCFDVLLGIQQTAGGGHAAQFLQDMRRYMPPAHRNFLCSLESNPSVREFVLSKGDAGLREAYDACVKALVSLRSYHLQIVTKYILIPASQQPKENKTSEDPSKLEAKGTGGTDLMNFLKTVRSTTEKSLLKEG

For one assay, the target named is IDO1 (Homo sapiens, UniProt P14902). Put plainly: Biochemical IDO1 assay (NFK GreenScreen). More on the design: Recombinant full-length IDO1 (Seegers, N., et al.) and all other assay components were diluted in IDO1 reaction buffer; made in house. To be noted: less active / most active isomer of the pair; assay not given. The method, then:
Inhibition of IDO1 activity can be measured by determining the enzymatic conversion of L-tryptophan into N-formylkynurenine (NFK) in a reaction mixture containing IDO1 and test compound. The formation of NFK can be detected directly by, for instance, high-performance liquid chromatography (HPLC) methods, or by intrinsic fluorescence.
Compounds were serially diluted in dimethylsulfoxide (DMSO) and finally in IDO1 reaction buffer, consisting of 50 mM NaH2PO4, pH7.0, supplemented with 0.05% Tween-20 (cat. No. P7949; Sigma Aldrich) and 1% glycerol. Recombinant full-length IDO1 (Seegers, N., et al.) and all other assay components were diluted in IDO1 reaction buffer. […] Subsequently, 10 μl of 0.4 mM of the substrate L-tryptophan was added, i.e., the final concentration of L-tryptophan was 100 μM. The DMSO concentration in the assay was 0.3%. […] Incubation was continued for 60 min at room temperature. Then, 10 μl of NFK Green™ (NTRC, Oss, The Netherlands) was added, the plate was sealed, and the reaction was developed for 3 hours at 37° C. To determine the production of N-formyl kynurenine (NFK), the seal was removed and fluorescence was read on an EnVision multimode reader (Perkin Elmer, Waltham, Mass., USA). IC50 were calculated using XLfit™ software (ID Business Solutions, Ltd., Surrey, U.K.).
Take `O=C1CN(Cc2c(F)cccc2F)C(c2cccc(Br)c2)N1O` (single isomer, unassigned) [Example 145b, 2-(3-bromophenyl)-1-[(2,6-difluorophenyl)methyl]-3-hydroxy-imidazolidin-4-one]: the “relative activity of separated isomers” value is “most active isomer”.

In the case of `O=C1CN(Cc2c(F)cccc2F)C(c2cccc(Br)c2)N1O` (single isomer, unassigned) [Example 145a, 2-(3-bromophenyl)-1-[(2,6-difluorophenyl)methyl]-3-hydroxy-imidazolidin-4-one], the “relative activity of separated isomers” value is listed as “less active isomer”.

`O=C1CN(Cc2ccccc2F)C(c2cccc(I)c2)N1O` (single isomer, unassigned) [Example 146a, 1-[(2-fluorophenyl)methyl]-3-hydroxy-2-(3-iodophenyl)imidazolidin-4-one]: the “relative activity of separated isomers” value is given as “less active isomer”.

Still in this assay, the particulars now being: recombinant full-length IDO1 25 nM, L-tryptophan 100 μM, NFK Green detection; read-out: IC50, inhibitory potency on IDO1.
For the compound `Cc1cccc(F)c1C(=O)N1CC(=O)N(O)C1c1cccc(Br)c1` (stereo not drawn) [Example 88, 2-(3-Bromophenyl)-1-(2-fluoro-6-methyl-benzoyl)-3-hydroxy-imidazolidin-4-one], the IC50 is ≤ 5 µM and 1 to 5 µM.

`CC(C)(N)C#Cc1cc(F)c(C(=O)N2CC(=O)N(O)C2c2cccc(Br)c2)c(F)c1` (stereo not drawn) [Example 112, 1-[4-(3-Amino-3-methyl-but-1-ynyl)-2,6-difluoro-benzoyl]-2-(3-bromophenyl)-3-hydroxy-imidazolidin-4-one]: the IC50 was ≤ 5 µM and 1 to 5 µM.

Consider `COc1ccc(C(=O)N2CC(=O)N(O)C2c2ccc(F)c(Br)c2)cc1` (stereo not drawn) [Example 47, 2-(3-Bromo-4-fluoro-phenyl)-3-hydroxy-1-(4-methoxybenzoyl)imidazolidin-4-one], for which the IC50 was ≤ 5 µM and 1 to 5 µM.

Turning to `O=C1CN(C(=O)c2cc(F)ccc2Cl)C(c2cccc(Br)c2)N1O` (stereo not drawn) [Example 31, 2-(3-Bromophenyl)-1-(2-chloro-5-fluoro-benzoyl)-3-hydroxy-imidazolidin-4-one], the IC50 was ≤ 5 µM and 1 to 5 µM.

For the compound `O=C1CN(C(=O)c2c(F)ccc([N+](=O)[O-])c2F)C(c2cccc(Br)c2)N1O` (stereo not drawn) [Example 75, 2-(3-Bromophenyl)-1-(2,6-difluoro-3-nitro-benzoyl)-3-hydroxy-imidazolidin-4-one], the IC50 is at most 1 µM.

Turning to `C[C@@H]1C(=O)N(O)C(c2cccc(Br)c2)N1C(=O)c1ccccc1F` (single isomer, unassigned) [Example 57], the IC50 was ≤ 5 µM and 1 to 5 µM.

`CS(=O)(=O)Nc1ccc(F)c(C(=O)N2CC(=O)N(O)C2c2cccc(Br)c2)c1F` (stereo not drawn) [Example 78, N-[3-[2-(3-bromophenyl)-3-hydroxy-4-oxo-imidazolidine-1-carbonyl]-2,4-difluoro-phenyl]methanesulfonamide]: the half-inhibitory concentration (IC50) was ≤ 5 µM and 1 to 5 µM.

For the compound `O=C1CN(C(=O)c2ccc(Cl)cc2Cl)C(c2cccc(Br)c2)N1O` (stereo not drawn) [Example 16, 2-(3-Bromophenyl)-1-(2,4-dichlorobenzoyl)-3-hydroxy-imidazolidin-4-one], the IC50 is ≤ 5 µM and 1 to 5 µM.

In the case of `O=C1CN(C(=O)c2ccccc2)C(c2ccc(F)c(Cl)c2)N1O` (stereo not drawn) [Example 50, 1-Benzoyl-2-(3-chloro-4-fluoro-phenyl)-3-hydroxy-imidazolidin-4-one], the IC50 was ≤ 5 µM and 1 to 5 µM.

In the case of `CN(CCO)c1cc(F)c(C(=O)N2CC(=O)N(O)C2c2cccc(Br)c2)c(F)c1` (stereo not drawn) [Example 135, 2-(3-Bromophenyl)-1-[2,6-difluoro-4-[2-hydroxyethyl(methyl)amino]benzoyl]-3-hydroxy-imidazolidin-4-one], the IC50 was ≤ 5 µM and 1 to 5 µM.

On to `NCC#Cc1cc(F)c(C(=O)N2CC(=O)N(O)C2c2cccc(Br)c2)c(F)c1` (stereo not drawn) [Example 109, 1-[4-(3-Aminoprop-1-ynyl)-2,6-difluoro-benzoyl]-2-(3-bromophenyl)-3-hydroxy-imidazolidin-4-one], for which the IC50 is at most 1 µM.

As for `O=C1CN(C(=O)c2ccc(F)cc2Cl)C(c2cccc(Br)c2)N1O` (stereo not drawn) [Example 30, 2-(3-Bromophenyl)-1-(2-chloro-4-fluoro-benzoyl)-3-hydroxy-imidazolidin-4-one], the IC50 is ≤ 5 µM and 1 to 5 µM.

For `CS(=O)(=O)c1ccc(-c2ccc(C(=O)N3CC(=O)N(O)C3c3cccc(Br)c3)cc2)cc1` (stereo not drawn) [Example 97, 2-(3-Bromophenyl)-3-hydroxy-1-[4-(4-methylsulfonylphenyl)benzoyl]imidazolidin-4-one], the IC50 is ≤ 5 µM and 1 to 5 µM.

With `NS(=O)(=O)NCC#Cc1cc(F)c(C(=O)N2CC(=O)N(O)C2c2cccc(Br)c2)c(F)c1` (stereo not drawn) [Example 111, 2-(3-Bromophenyl)-1-[2,6-difluoro-4-[3-(sulfamoylamino)prop-1-ynyl]benzoyl]-3-hydroxy-4-oxo-imidazolidine], the 50% inhibitory concentration (IC50) was at most 1 µM.

With `O=C1CN(Cc2c(F)cccc2F)C(c2cccc(Br)c2)N1O` (single isomer, unassigned) [Example 145b, 2-(3-bromophenyl)-1-[(2,6-difluorophenyl)methyl]-3-hydroxy-imidazolidin-4-one], the IC50 is at most 1 µM.

Take `O=C1CN(C(=O)c2ccccc2)C(c2cccc(Br)c2)N1O` (single isomer, unassigned) [Example 64, 1-benzoyl-2-(3-bromophenyl)-3-hydroxy-imidazolidin-4-one]: the IC50 was ≤ 5 µM and 1 to 5 µM.

Turning to `O=C1CN(C(=O)c2ccc3cn[nH]c3c2)C(c2cccc(Br)c2)N1O` (stereo not drawn) [Example 103, 2-(3-Bromophenyl)-3-hydroxy-1-(1H-indazole-6-carbonyl)imidazolidin-4-one], the IC50 was ≤ 5 µM and 1 to 5 µM.

With `O=C1CN(C(=O)c2ccc(C(F)(F)F)cc2F)C(c2cccc(Br)c2)N1O` (stereo not drawn) [Example 38, 2-(3-Bromophenyl)-1-[2-fluoro-4-(trifluoromethyl)benzoyl]-3-hydroxy-imidazolidin-4-one], the IC50 is ≤ 5 µM and 1 to 5 µM.

As to `O=C1CN(C(=O)c2ccc(F)cc2)C(c2cccc(Br)c2)N1O` (stereo not drawn) [Example 29, 2-(3-Bromophenyl)-1-(4-fluorobenzoyl)-3-hydroxy-imidazolidin-4-one], the IC50 was ≤ 5 µM and 1 to 5 µM.

For the compound `O=C1CN(Cc2c(F)cccc2F)C(c2cccc(Br)c2)N1O` (single isomer, unassigned) [Example 145a, 2-(3-bromophenyl)-1-[(2,6-difluorophenyl)methyl]-3-hydroxy-imidazolidin-4-one], the IC50 is at most 1 µM.

`O=C1CN(C(=O)C2CCC2)C(c2ccc(F)c(Br)c2)N1O` (stereo not drawn) [Example 23, 2-(3-Bromo-4-fluoro-phenyl)-1-(cyclobutanecarbonyl)-3-hydroxy-imidazolidin-4-one]: the IC50 was ≤ 5 µM and 1 to 5 µM.

As for `CC(=O)NC(C)(C)C#Cc1cc(F)c(C(=O)N2CC(=O)N(O)C2c2cccc(Br)c2)c(F)c1` (stereo not drawn) [Example 113, N-[3-[4-[2-(3-bromophenyl)-3-hydroxy-4-oxo-imidazolidine-1-carbonyl]-3,5-difluoro-phenyl]-1,1-dimethyl-prop-2-ynyl]acetamide], the IC50 is ≤ 5 µM and 1 to 5 µM.

With `CC(=O)Nc1ccc(F)c(C(=O)N2CC(=O)N(O)C2c2cccc(Br)c2)c1F` (stereo not drawn) [Example 77, N-[3-[2-(3-bromophenyl)-3-hydroxy-4-oxo-imidazolidine-1-carbonyl]-2,4-difluoro-phenyl]acetamide], the IC50 was at most 1 µM.

Turning to `O=C1CN(Cc2ccccc2F)C(c2cccc(I)c2)N1O` (single isomer, unassigned) [Example 146a, 1-[(2-fluorophenyl)methyl]-3-hydroxy-2-(3-iodophenyl)imidazolidin-4-one], the IC50 is at most 1 µM.

For the compound `O=C1CN(Cc2ccccc2F)C(c2ccc(F)c(Br)c2)N1O` (stereo not drawn) [Example 126, 2-(3-Bromo-4-fluoro-phenyl)-1-[(2-fluorophenyl)methyl]-3-hydroxy-imidazolidin-4-one], the IC50 was at most 1 µM.

Consider `O=C1CN(C(=O)c2c(F)cc(-c3cccnc3)cc2F)C(c2cccc(Br)c2)N1O` (stereo not drawn) [Example 123, 2-(3-Bromophenyl)-1-[2,6-difluoro-4-(3-pyridyl)benzoyl]-3-hydroxy-imidazolidin-4-one], for which the IC50 is ≤ 5 µM and 1 to 5 µM.

As to `O=C1CN(C(=O)c2c(F)cccc2F)C(c2cccc(Br)c2F)N1O` (stereo not drawn) [Example 70, 2-(3-Bromo-2-fluoro-phenyl)-1-(2,6-difluorobenzoyl)-3-hydroxy-imidazolidin-4-one], the IC50 was ≤ 5 µM and 1 to 5 µM.
